Consider nine compounds from ChEMBL document CHEMBL5291721, “A preclinical secondary pharmacology resource illuminates target-adverse drug reaction associations of marketed drugs” (Nat Commun, 2023).

Targets include D(1A) dopamine receptor (Homo sapiens, UniProt P21728); D(3) dopamine receptor (Homo sapiens, UniProt P35462); Histamine H3 receptor (Homo sapiens, UniProt Q9Y5N1).
The target of the next assay is Acetylcholinesterase (Homo sapiens, UniProt P22303). The format is functional.
In assay [1] the target is T1, Alpha-2A adrenergic receptor (Homo sapiens, UniProt P08913).
T1 sequence (P08913 whole entry): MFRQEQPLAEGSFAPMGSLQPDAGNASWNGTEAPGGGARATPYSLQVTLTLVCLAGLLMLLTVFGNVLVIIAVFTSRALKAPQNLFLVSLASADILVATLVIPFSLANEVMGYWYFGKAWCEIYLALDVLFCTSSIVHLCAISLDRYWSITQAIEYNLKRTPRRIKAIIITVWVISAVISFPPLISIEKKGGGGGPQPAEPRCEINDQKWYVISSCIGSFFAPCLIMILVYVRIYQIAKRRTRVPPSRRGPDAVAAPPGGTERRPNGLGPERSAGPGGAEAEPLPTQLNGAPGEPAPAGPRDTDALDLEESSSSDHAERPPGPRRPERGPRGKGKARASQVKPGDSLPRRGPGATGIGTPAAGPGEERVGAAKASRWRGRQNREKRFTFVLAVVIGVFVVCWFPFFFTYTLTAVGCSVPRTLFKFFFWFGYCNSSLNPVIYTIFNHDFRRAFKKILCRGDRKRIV

For assay [2], the target named is T2, 5-hydroxytryptamine receptor 1A (Homo sapiens, UniProt P08908).
T2 sequence (P08908 whole entry): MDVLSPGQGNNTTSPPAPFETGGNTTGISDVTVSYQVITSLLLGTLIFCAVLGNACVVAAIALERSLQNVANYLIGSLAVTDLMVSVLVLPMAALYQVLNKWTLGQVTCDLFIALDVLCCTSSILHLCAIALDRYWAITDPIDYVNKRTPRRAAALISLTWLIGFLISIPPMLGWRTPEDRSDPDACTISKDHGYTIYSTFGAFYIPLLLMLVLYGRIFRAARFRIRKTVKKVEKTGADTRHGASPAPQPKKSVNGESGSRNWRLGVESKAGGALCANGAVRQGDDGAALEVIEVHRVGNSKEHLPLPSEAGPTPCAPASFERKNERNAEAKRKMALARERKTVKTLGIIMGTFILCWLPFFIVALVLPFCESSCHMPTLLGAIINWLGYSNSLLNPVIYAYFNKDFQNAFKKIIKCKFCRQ

In assay [3] the target is 5-hydroxytryptamine receptor 2B (Homo sapiens, UniProt P41595). The assay is classed as functional, cell-based.
In assay [4] the target is cGMP-inhibited 3',5'-cyclic phosphodiesterase 3A (Homo sapiens, UniProt Q14432). The format is functional.
Assay [5] concerns the target 3',5'-cyclic-AMP phosphodiesterase 4A (Homo sapiens, UniProt P27815). The assay is classed as functional.
In the next assay the target is T3, Progesterone receptor (Homo sapiens, UniProt P06401).
T3 sequence (P06401 whole entry): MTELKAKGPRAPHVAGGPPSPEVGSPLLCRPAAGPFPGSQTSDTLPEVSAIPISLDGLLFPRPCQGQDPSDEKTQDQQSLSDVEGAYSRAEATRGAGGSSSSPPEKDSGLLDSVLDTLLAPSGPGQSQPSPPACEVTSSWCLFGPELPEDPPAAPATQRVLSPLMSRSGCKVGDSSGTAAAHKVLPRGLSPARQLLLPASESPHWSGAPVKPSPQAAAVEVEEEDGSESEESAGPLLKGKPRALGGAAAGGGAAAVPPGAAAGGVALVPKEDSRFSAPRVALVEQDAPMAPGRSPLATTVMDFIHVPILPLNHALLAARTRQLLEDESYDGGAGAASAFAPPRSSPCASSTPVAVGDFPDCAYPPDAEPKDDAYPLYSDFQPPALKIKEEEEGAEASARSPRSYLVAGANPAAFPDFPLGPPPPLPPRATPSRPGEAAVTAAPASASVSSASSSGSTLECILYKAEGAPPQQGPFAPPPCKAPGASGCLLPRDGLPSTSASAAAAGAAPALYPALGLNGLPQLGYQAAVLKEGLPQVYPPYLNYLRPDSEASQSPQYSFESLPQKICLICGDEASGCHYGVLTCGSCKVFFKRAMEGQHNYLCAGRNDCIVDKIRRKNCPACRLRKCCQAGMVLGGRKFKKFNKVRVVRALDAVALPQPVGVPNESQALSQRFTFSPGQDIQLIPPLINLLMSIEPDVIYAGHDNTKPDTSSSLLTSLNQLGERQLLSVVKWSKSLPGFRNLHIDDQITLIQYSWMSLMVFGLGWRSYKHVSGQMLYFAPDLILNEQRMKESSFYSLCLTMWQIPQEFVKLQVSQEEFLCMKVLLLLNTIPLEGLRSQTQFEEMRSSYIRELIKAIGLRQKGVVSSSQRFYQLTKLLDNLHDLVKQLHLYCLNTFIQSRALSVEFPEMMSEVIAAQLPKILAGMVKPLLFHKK

Assay [6] deals with Prostaglandin G/H synthase 1 (Homo sapiens, UniProt P23219). The format is functional.
For assay [7], the target named is Sodium-dependent noradrenaline transporter (Homo sapiens, UniProt P23975).
In assay [8] the target is T4, Thromboxane A2 receptor (Homo sapiens, UniProt P21731).
T4 sequence (P21731 whole entry): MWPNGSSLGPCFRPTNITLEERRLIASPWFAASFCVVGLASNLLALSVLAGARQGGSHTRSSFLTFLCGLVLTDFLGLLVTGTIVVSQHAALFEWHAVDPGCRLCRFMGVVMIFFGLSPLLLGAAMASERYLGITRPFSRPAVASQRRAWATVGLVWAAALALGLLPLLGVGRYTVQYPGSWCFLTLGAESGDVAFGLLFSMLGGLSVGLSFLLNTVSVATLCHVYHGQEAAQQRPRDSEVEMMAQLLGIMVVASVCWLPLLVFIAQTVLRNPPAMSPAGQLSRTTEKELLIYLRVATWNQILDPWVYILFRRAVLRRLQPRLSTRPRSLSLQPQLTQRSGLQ
The format is functional, cell-based.

The target of assay [9] is T4, Thromboxane A2 receptor. The format is functional, cell-based. The source holds these as a separate data set.
Further: assay procedure not described here.

Prostaglandin G/H synthase 1, sequence (P23219 whole entry): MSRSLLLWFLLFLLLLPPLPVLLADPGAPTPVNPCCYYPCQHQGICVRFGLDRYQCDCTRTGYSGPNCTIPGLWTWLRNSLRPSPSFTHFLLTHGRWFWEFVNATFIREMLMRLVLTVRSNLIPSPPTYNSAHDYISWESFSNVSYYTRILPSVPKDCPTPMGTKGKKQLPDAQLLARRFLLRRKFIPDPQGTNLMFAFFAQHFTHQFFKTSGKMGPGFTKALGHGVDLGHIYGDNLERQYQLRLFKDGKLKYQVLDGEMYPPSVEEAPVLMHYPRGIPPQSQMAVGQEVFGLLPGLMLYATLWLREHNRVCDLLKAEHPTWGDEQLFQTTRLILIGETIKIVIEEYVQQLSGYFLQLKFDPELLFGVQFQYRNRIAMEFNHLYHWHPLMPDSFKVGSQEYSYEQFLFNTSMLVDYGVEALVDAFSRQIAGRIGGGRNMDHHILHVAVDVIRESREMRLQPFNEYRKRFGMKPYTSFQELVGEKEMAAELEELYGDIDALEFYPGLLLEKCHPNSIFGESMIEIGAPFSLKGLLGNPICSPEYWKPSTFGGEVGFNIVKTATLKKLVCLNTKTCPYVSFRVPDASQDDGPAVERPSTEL
cGMP-inhibited 3',5'-cyclic phosphodiesterase 3A, sequence (Q14432 whole entry): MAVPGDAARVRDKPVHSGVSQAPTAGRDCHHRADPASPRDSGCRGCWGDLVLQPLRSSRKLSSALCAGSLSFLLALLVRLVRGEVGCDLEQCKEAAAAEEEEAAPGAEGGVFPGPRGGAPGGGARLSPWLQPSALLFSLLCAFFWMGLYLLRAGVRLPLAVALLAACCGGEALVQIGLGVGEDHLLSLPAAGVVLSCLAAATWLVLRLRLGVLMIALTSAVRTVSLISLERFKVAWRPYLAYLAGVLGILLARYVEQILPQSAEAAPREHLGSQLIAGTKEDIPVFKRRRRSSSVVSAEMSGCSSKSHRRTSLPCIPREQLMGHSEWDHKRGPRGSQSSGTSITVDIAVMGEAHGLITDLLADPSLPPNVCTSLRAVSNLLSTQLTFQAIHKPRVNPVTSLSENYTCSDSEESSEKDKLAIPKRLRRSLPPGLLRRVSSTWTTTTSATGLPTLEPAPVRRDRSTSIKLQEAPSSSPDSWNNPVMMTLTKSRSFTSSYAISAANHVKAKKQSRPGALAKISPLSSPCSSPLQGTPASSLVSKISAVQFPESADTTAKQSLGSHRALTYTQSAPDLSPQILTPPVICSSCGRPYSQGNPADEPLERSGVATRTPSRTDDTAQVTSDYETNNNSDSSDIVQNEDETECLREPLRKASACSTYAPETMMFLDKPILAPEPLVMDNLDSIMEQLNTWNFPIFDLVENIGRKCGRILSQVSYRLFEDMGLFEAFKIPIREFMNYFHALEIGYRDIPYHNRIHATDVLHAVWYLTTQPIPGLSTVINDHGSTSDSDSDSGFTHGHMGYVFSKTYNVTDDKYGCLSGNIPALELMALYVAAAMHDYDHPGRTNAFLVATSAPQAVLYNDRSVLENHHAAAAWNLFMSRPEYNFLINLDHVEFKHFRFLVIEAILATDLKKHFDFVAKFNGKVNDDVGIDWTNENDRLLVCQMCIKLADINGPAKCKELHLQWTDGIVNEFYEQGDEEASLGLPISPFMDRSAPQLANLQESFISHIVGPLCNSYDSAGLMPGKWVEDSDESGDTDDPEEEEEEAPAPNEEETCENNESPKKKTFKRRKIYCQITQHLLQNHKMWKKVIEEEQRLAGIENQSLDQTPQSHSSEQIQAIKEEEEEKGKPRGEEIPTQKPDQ
3',5'-cyclic-AMP phosphodiesterase 4A, sequence (P27815 whole entry): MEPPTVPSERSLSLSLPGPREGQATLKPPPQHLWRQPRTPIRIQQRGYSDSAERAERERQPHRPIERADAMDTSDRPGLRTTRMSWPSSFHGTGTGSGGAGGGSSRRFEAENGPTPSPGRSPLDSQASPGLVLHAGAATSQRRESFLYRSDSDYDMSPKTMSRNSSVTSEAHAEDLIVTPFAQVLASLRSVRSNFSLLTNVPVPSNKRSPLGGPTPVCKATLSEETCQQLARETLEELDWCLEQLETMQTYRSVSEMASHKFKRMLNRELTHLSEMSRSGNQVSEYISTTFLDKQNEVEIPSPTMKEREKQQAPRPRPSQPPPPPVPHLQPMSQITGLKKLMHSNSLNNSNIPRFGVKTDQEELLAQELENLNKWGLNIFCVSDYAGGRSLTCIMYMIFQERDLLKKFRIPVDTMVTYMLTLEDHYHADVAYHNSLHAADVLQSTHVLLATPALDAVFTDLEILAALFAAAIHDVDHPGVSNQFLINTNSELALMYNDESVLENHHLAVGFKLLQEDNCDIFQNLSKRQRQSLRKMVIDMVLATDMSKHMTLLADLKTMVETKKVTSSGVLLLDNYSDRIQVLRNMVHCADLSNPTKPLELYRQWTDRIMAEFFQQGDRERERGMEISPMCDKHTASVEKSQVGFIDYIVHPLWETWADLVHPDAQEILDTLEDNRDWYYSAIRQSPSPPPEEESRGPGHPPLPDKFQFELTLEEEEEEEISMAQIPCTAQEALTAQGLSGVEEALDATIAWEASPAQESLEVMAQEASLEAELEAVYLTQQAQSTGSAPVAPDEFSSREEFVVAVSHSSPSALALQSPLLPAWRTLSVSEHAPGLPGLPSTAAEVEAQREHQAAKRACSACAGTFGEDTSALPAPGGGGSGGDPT
D(3) dopamine receptor, sequence (P35462 whole entry): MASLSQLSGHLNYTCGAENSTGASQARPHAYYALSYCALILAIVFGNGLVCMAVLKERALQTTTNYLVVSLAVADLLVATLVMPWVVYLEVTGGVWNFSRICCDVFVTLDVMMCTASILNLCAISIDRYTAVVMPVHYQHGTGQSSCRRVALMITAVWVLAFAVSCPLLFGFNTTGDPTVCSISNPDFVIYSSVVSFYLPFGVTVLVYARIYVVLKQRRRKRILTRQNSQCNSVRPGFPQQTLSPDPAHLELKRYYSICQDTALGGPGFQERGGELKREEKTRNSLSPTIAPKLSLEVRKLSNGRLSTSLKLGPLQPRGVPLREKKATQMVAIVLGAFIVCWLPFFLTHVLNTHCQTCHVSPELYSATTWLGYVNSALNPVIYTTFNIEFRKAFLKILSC
Acetylcholinesterase, sequence (P22303 whole entry): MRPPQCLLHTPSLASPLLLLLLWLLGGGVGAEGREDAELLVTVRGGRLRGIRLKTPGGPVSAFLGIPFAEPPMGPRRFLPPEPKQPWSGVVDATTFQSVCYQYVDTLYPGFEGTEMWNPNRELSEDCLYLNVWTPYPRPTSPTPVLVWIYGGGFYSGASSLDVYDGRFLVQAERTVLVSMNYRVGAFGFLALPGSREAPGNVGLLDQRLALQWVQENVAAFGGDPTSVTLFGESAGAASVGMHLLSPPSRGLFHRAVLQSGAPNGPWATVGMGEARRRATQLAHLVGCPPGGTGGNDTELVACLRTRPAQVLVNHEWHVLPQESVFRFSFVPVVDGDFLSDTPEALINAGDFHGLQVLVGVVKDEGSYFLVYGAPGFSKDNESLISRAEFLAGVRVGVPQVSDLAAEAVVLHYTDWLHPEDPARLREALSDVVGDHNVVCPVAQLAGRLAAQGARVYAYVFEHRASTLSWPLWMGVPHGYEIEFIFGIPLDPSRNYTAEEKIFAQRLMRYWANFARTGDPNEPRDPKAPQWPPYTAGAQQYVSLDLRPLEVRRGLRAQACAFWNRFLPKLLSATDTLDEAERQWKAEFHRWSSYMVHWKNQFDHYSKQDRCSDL
5-hydroxytryptamine receptor 2B, sequence (P41595 whole entry): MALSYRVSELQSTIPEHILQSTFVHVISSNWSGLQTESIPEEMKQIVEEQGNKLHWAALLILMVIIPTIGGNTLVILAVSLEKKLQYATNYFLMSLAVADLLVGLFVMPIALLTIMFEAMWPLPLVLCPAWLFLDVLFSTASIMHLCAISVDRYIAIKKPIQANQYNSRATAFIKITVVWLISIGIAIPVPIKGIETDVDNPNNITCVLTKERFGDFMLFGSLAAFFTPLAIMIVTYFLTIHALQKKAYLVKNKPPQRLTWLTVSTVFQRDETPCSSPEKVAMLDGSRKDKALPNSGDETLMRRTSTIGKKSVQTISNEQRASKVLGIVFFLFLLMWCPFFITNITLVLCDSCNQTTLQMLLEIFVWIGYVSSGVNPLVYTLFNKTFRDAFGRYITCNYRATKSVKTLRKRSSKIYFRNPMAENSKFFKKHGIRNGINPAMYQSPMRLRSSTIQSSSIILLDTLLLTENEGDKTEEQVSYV
Sodium-dependent noradrenaline transporter, sequence (P23975 whole entry): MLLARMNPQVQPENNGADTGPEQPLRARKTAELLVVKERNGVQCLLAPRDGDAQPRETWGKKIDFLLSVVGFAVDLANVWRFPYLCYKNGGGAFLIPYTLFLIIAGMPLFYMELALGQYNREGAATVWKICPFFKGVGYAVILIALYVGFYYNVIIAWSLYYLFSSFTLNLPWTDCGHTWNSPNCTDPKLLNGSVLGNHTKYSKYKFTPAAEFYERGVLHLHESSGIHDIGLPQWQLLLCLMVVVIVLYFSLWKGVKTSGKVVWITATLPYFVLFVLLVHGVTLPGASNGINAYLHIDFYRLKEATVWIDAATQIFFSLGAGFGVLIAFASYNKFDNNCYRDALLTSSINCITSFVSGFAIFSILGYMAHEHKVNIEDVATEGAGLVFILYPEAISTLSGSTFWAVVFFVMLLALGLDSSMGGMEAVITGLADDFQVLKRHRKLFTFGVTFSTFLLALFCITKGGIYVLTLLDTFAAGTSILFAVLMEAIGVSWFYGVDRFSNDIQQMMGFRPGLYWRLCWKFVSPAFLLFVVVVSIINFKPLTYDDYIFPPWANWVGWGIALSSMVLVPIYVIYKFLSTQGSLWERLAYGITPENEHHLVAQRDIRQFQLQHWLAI

As to `COc1c2ccoc2cc2oc(=O)ccc12` [BERGAPTEN], the AC50 (at Acetylcholinesterase; in assay [1]; on D(1A) dopamine receptor; at D(3) dopamine receptor; at Histamine H3 receptor; in assay [2]) was over 30 µM throughout. Moreover, the AC50 (in general, the midpoint of the concentration-response curve, whichever way the signal moves) was over 30 µM in assay [3]; over 30 µM in assay [4]; over 30 µM in assay [5]; 12.4 µM at Progesterone receptor; over 30 µM in assay [6]; over 30 µM in [7]. Moreover, the AC50 on Thromboxane A2 receptor [8] and on Thromboxane A2 receptor [9] was over 30 µM in each case.

For `CNC(=O)Oc1cccc2ccccc12` [CARBARIL], the AC50 (at Acetylcholinesterase; in [1]; on D(1A) dopamine receptor; at D(3) dopamine receptor; on Histamine H3 receptor; in assay [2]) was over 30 µM throughout. Also, the AC50 in assay [3] was over 30 µM; in assay [4] it was over 30 µM; in [5], over 30 µM; on Progesterone receptor, 14.3 µM; in assay [6], 4.19 µM; in assay [7] it was over 30 µM. In addition, the AC50 on Thromboxane A2 receptor [8] and on Thromboxane A2 receptor [9] was over 30 µM each time.

As to `CC[C@H](C)C[C@H](C)CCCCCCCCC(=O)N[C@H]1C[C@@H](O)[C@@H](NCCN)NC(=O)[C@@H]2[C@@H](O)CCN2C(=O)[C@H]([C@H](O)CCN)NC(=O)[C@H]([C@H](O)[C@@H](O)c2ccc(O)cc2)NC(=O)[C@@H]2C[C@@H](O)CN2C(=O)[C@H]([C@@H](C)O)NC1=O` [CASPOFUNGIN], the AC50 was over 30 µM at Acetylcholinesterase; over 30 µM in assay [1]; 8.83 µM at D(1A) dopamine receptor; over 30 µM on D(3) dopamine receptor; over 30 µM at Histamine H3 receptor; over 30 µM in assay [2]. Further, the AC50 is over 30 µM in assay [3]; over 30 µM in assay [4]; over 30 µM in assay [5]; 5.7 µM on Progesterone receptor; 3.63 µM in assay [6]; 5.03 µM in [7]. Also, the AC50 on Thromboxane A2 receptor [8] and on Thromboxane A2 receptor [9] was over 30 µM each time.

In the case of `C/C=C/C/C=C/CCC(=O)[C@H]1O[C@H]1C(N)=O` [CERULENIN], the AC50 (at Acetylcholinesterase; in assay [1]; on D(1A) dopamine receptor; on D(3) dopamine receptor; at Histamine H3 receptor; in assay [2]) was over 30 µM throughout. Moreover, the AC50 in assay [3] is over 30 µM; in assay [4], over 30 µM; in [5] it was over 30 µM; on Progesterone receptor, over 30 µM; in [6], 15.5 µM; in [7], over 30 µM. For the same compound, the AC50 on Thromboxane A2 receptor [8] and on Thromboxane A2 receptor [9] was over 30 µM each time.

With `CN(C)[C@@H]1C(O)=C(C(N)=O)C(=O)[C@@]2(O)C(O)=C3C(=O)c4c(O)ccc(Cl)c4[C@@](C)(O)[C@H]3C[C@@H]12` [CHLORTETRACYCLINE], the AC50 (at Acetylcholinesterase; in assay [1]; at D(1A) dopamine receptor; on D(3) dopamine receptor; at Histamine H3 receptor; in assay [2]) was over 30 µM in each case. In addition, the AC50 (in assay [3]; in assay [4]; on Progesterone receptor; in [6]; in [7]; at Thromboxane A2 receptor [8]) was over 30 µM throughout. At Thromboxane A2 receptor [9], this compound came in with an AC50 of over 30 µM.

`N[C@@H](CS)C(=O)O` [CYSTEINE]: the AC50 (at Acetylcholinesterase; in assay [1]; on D(1A) dopamine receptor; on D(3) dopamine receptor; at Histamine H3 receptor; in [2]) was over 30 µM each time. Moreover, the AC50 (in assay [3]; in assay [4]; in assay [5]; at Progesterone receptor; in [6]; in assay [7]) was over 30 µM throughout. Further, the AC50 on Thromboxane A2 receptor [8] and at Thromboxane A2 receptor [9] was over 30 µM throughout.

Turning to `CC(CCc1ccccc1)NCC(O)c1ccc(O)c(C(N)=O)c1` (stereo not given) [LABETALOL], the AC50 at Acetylcholinesterase is over 30 µM; on D(1A) dopamine receptor, over 30 µM; on D(3) dopamine receptor, 5.85 µM; on Histamine H3 receptor, over 30 µM; in [2], 0.104 µM; in assay [3], over 30 µM. For the same compound, the AC50 in [4] is over 30 µM; in assay [5] it was over 30 µM; on Progesterone receptor it was over 30 µM; in assay [6] it was over 30 µM; in [7] it was 4.04 µM; on Thromboxane A2 receptor [8], over 30 µM. Also, the AC50 on Thromboxane A2 receptor [9] is over 30 µM.

In the case of `N#Cc1ccc2c(c1)N(CCCN1CCC(O)CC1)c1ccccc1S2` [PERICIAZINE], the AC50 at Acetylcholinesterase was 29.1 µM; at Histamine H3 receptor, over 30 µM; in assay [2] it was 8.8 µM; in assay [3], over 30 µM; in [4], over 30 µM; in assay [5] it was over 30 µM. For the same compound, the AC50 was 22.1 µM at Progesterone receptor; over 30 µM in assay [6]; 5.08 µM in assay [7]; over 30 µM on Thromboxane A2 receptor [8]; 17 µM at Thromboxane A2 receptor [9].

On to `CC1=C(/C=C/C(C)=C/C=C/C(C)=C/C(=O)O)C(C)(C)CCC1` [TRETINOIN], for which the AC50 is over 30 µM at Acetylcholinesterase; over 30 µM in [1]; over 30 µM on D(1A) dopamine receptor; 22.6 µM on D(3) dopamine receptor; over 30 µM on Histamine H3 receptor; over 30 µM in assay [2]. Further, the AC50 was over 30 µM in [3]; over 30 µM in [4]; 1.27 µM in [5]; 4.24 µM at Progesterone receptor; 10.5 µM in assay [7]; over 30 µM on Thromboxane A2 receptor [8]. This compound also returned an AC50 at Thromboxane A2 receptor [9] of 14.3 µM.
